Results: publication PMC12843137, “Fine-Tuning Side Chain Substitutions: Impacts on the Lipophilicity–Solubility–Permeability Interplay in Macrocyclic Peptides” (Marine Drugs, 2025)
≈ marks a conversion by molar mass, not a printed value. Like-named read-outs stand apart in the source and are kept apart here.

Key:
[1] = Caco-2 cell permeability study; type: in vitro ADME; details: human; for efflux ratio at 2 h, 5 µM: Caco-2, pH 7.4; for recovery at 2 h, 5 μM: Caco-2, pH 7.4, Caco-2, 5 μM; for Papp A→B at 2 h, 5 µM / Papp B→A at 2 h, 5 µM: pH 7.4, Caco-2, 5 μM; for Papp A→B at 2 h, 5 µM: apical to basolateral; for Papp B→A at 2 h, 5 µM: basolateral to apical
Text: One of the physicochemical quantities that mirrors the interaction of a compound with the cell membrane is permeability. Traditionally, measuring permeability with the PAMPA model provides estimates of passive permeability across a model membrane. […] Therefore, we measure the cell permeability of the six compounds using Caco-2 cells, so that the apical to basolateral (A to B) and basolateral to apical (B to A) permeabilities, and thereby the efflux ratio, can be determined. Three commercial drugs (Table 2) are used as standard compounds to establish and validate our in-house assay.
For Caco-2 cells (originally obtained from the American Type Culture Collection; ATCC, Manassas, VA, USA), 50 μL and […] of cell culture medium are added to each well of the Transwell insert and reservoir, respectively. And then the HTS transwell plates are incubated at 37 °C, 5% CO2 for 1 h before cell seeding. Caco-2 cells are diluted to 6.86 × 10^5 cells/mL with culture medium and 50 μL of cell suspension is dispensed into the filter well of the 96-well HTS Transwell plate. Cells are cultivated for 14–18 days in a cell culture incubator at 37 °C, 5% CO2, 95% relative humidity. Cell culture medium is replaced every other day, beginning no later than 24 h after initial plating. Stock solutions of the test compounds are prepared at a concentration of 10 mM in DMSO. […] Detailed assay procedures are provided in the SI. […]
dilution factor is changed according to the log D value and the LC-MS signal response. The samples are evaluated by LC-MS/MS analysis. All experiments are performed in duplicates.
5. Caco-2 Cell Permeability Assay
The Caco-2 plate is removed from the incubator and washed twice with pre-warmed HBSS (10 mM HEPES, pH 7.4), and then incubated at 37 °C for 30 minutes. The stock solutions of control compounds and test compounds are diluted in DMSO to get 1 mM solutions and then diluted with HBSS (10 mM HEPES, pH 7.4) get 5 μM working solutions. The final concentration of DMSO in the incubation system is 0.5%. To determine the rate of drug transport in the apical to basolateral direction. 125 μL of 5 μM working solution of control compounds and test compounds are added to the Transwell insert (apical compartment), and transfer 50 μL sample (D0 sample) immediately from the apical compartment to a new 96-well plate. Fill the wells in the receiver plate (basolateral compartment) with 235 μL of HBSS (10 mM HEPES, pH 7.4). To determine the rate of drug transport in the basolateral to apical direction. 285 μL of 5 μM working solution of control compounds and test compounds are to the receiver plate wells (basolateral compartment), and transfer 50 μL sample (D0 sample) immediately from the basolateral compartment to a new 96-well plate.
Fill the wells in the Transwell insert (apical compartment) with 75 μL of HBSS (10 mM HEPES, pH 7.4).
The assay is performed in duplicate. The plates are incubated at 37 °C for 2 h. At the end of the incubation, 50 μL samples from donor sides (apical compartment for Ap→Bl flux, and basolateral compartment for Bl→Ap) and receiver sides (basolateral compartment for Ap→Bl flux, and apical compartment for Bl→Ap) are transferred to wells of a new 96-well plate, followed by the addition of 4 volume of cold acetonitrile containing appropriate internal standards (IS). Samples are Vortexed for 5 minutes and then centrifuged at 3,220 g for 30 minutes. An aliquot of 100 µL of the supernatant is mixed with an appropriate volume of ultra-pure water before LC-MS/MS analysis (see SI Bioanalytical Method for Caco-2 Cell Permeability […]
Papp (A to B) is greater than the Papp (A to B) of minoxidil it is assigned as high permeability. If the Papp (A to B) is […]

[2] = log D7.4 by shake-flask method (1-octanol/PBS); type: physicochemical
Procedure: (§1) One explanation for the high IC50 values (i.e., low activity) of the new compounds is their potential poor solubility in aqueous solution or inadequate lipophilicity. To investigate this hypothesis, we determined kinetic solubility in […] phosphate buffer at pH 7.4 (Table 1). […] The remaining two compounds, BE and 29, show low solubilities (<0.1 μM). […] Additionally, since approximately 95% of drugs are ionizable, assessment of lipophilicity at pH 7.4 (log D7.4) is essential during the initial phases of drug discovery. In this study, we employ the shake-flask method to evaluate this property. […] Because lipophilicity directly reflects compound–membrane interaction, the activity of these compounds against PANC-1 cells likely stems from their interaction with the cell membrane.
The basic solution is titrated with the acidic solution to achieve pH 7.4, with the pH verified and adjusted to 7.4 ± 0.1 on the experiment day. Saturated 1-octanol and PBS (pH 7.4) are also prepared. The stock solutions of test compounds and control compound progesterone are prepared in DMSO at a concentration of 10 mM (0.666 mM: compound 39). The detailed procedure for log D determinations can be found in the SI. […]
4. Procedure for log D determinations […]
µL of phosphate buffer saturated 1-octanol to get a concentration of 300 µM working solution. 20 µL of 300 µM compound solution is placed in order into their proper 96-well rack followed by the addition of 980 µL of 1-octanol saturated phosphate buffer. One stir stick is added to each vial and vials are sealed molded PTFE/Silicone plugs. Then the log D plate is transferred to the Eppendorf Thermomixer Comfort plate shaker and shaken at 25°C at 1,100 RPM for 1 h. The assay is performed in duplicate. After completion of 1 h, the stir sticks are removed using a big magnet. The samples are then centrifuged at 25°C at 20,000 g for 20 minutes to separate the phases, and syringe is used to remove the lower (buffer) phases to the empty tubes. Then the buffer phase is diluted with the same volume of acetonitrile/ultrapure water (50%/50%) for LC-MS/MS analysis. 300 µM working solution is diluted with acetonitrile/ultrapure water (50%/50%) to achieve a concentration of 3 µM. Then the 3 µM solution is diluted to 0.3 µM to get the total samples by adding 4 volumes of acetonitrile/ultrapure water (50%/50%) and 5 volumes of 1-octanol saturated Phosphate Buffer for LC-MS/MS analysis. […]
test compounds and control compound is placed in order into their 2.0 mL deep well plate, 500 µL of […]
followed by the addition of 500 µL of saturated PBS (pH 7.4). Seal the plate using a Silicone sealing mat.
Then the log D plate is transferred to the Eppendorf Thermomixer Comfort plate shaker and shaken at 25°C at 2,000 RPM for 2 h. After completion of 2 h, the samples are then centrifuged at 25°C at 3,220 g for 30 minutes to separate the phases, and pipette are used to remove the upper (1-octanol) and lower (buffer) phases to the empty tubes, respectively. Aliquots of 50 µL are taken from upper phases followed by addition of 450 µL of acetonitrile (containing internal standards (IS, 200 nM labetalol, 100 nM tolbutamide and 100 nM ketoprofen)). Mix with a pipette, and then aliquots of 50 µL are taken from the diluent followed by addition of 450 µL of acetonitrile (containing internal standards (IS, 200 nM labetalol, 100 nM tolbutamide and 100 nM ketoprofen)). […]

[3] = Kinetic solubility in PBS pH 7.4; type: physicochemical; details: sodium phosphate buffer (PBS), 25 °C, pH 7.4, aqueous buffer, kinetic from dmso stock, PBS pH 7.4, 25 °C
Procedure: as §1
Solubility is determined in 100 mM sodium phosphate buffer (PBS), pH 7.4. The stock solutions of test compound and control compound progesterone are prepared in DMSO at a concentration of 10 mM. 30 µL of working solutions of each sample is placed in order into their proper 96-well rack. 970 µL of PBS pH 7.4 is added into each vial of the cap-less Solubility Sample plate. The assay is performed in duplicate. Add one stir stick to each vial and seal using a molded PTFE/Silicone plug. Then the Solubility Sample plate is transferred to the Eppendorf Thermomixer Comfort plate shaker and shaken at 25 °C at 1100 RPM for 2 h. After completion of the 2 h, plugs are removed and the stir sticks are removed using a big magnet, the samples from the Solubility Sample plate are transferred into the filter plate. Using the Vacuum Manifold, all the samples are filtered. Aliquot of 5 µL is taken from the filtrate, followed by addition of 5 µL DMSO and 490 µL of a mixture of H2O and acetonitrile (1:1 in v/v). 200 μL of diluent is transferred to a new 96-well plate for LC-MS/MS analysis (see SI Bioanalytical Method for Solubility Measurement). The dilution factor is changed according to the solubility values and the LC-MS signal response.
MRM) / -4500 v (negative MRM). […]
13. Bioanalytical Method for Solubility Measurement
MS analysis: Triple Quad TM 5500 instrument from AB Inc (Canada) with an ESI interface
Injection volume: 1 μL, 3 μL, 5 μL or 10 μL
Column: ACQUITY UPLC BEH C18 (2.1 × 50 mmI.D. S-1.7 μm, 12 nm) Column
Mobile phase: 0.1% Ammonium hydroxide solution in water (A) and 0.1% Ammonium hydroxide solution
Column: XSelect Hss T3 2.5μm (2.1 × 50 mm) Column XP
Mobile phase: 0.1% formic acid in water (A) and 0.1% formic acid in acetonitrile (B)

[4] = read-out: Mean % Solution Recovery A to B
[5] = read-out: Mean % Solution Recovery B to A

| SMILES | efflux ratio at 2 h, 5 µM [1] | recovery at 2 h, 5 μM [1, 4] [%] | recovery at 2 h, 5 μM [1, 5] [%] | Papp A→B at 2 h, 5 µM [1] [×10⁻⁶ cm/s] | Papp B→A at 2 h, 5 µM [1] [×10⁻⁶ cm/s] | log D7.4 ([2]; 1-Octanol/PBS pH 7.4, shake-flask) | logD ([2]; 1-octanol/PBS, pH 7.4, 1-Octanol/PBS pH 7.4, shake-flask) | solubility at 2 h [3] [µM] |
| --- | --- | --- | --- | --- | --- | --- | --- | --- |
| C[C@@H]1C(=O)[C@](C)(O)C(=O)NCC(=O)N[C@H](CN2CCN(C)CC2)/C=C/C(=O)N(C)CC(=O)O[C@H]1CCCCCc1cn(CCCCCCCCCC(=O)O)nn1 [Compound 39] | 1.26 | 99.5 | 48.6 | 0.0836 | 0.105 | −0.30 | – | – |
| C[C@H]1O[C@@H](O[C@H]2[C@@H](O)C[C@H](O[C@H]3[C@@H](O)C[C@H](O[C@H]4CC[C@@]5(C)[C@H](CC[C@@H]6[C@@H]5C[C@@H](O)[C@]5(C)[C@@H](C7=CC(=O)OC7)CC[C@]65O)C4)O[C@@H]3C)O[C@@H]2C)C[C@H](O)[C@@H]1O [Digoxin, reference compound] | 25.9 | 83.2 | 95 | 0.77 | 20 | – | – | – |
| Nc1cc(N2CCCCC2)nc(N)[n+]1[O-] [Minoxidil, reference compound] | 1.08 | 104 | 106 | 9.52 | 10.3 | – | – | – |
| CC(=O)[C@H]1CC[C@H]2[C@@H]3CCC4=CC(=O)CC[C@]4(C)[C@H]3CC[C@]12C [Progesterone, reference compound] | – | – | – | – | – | – | 3.85 | 13.1 (≈ 4.13 µg/mL) |
